Measurements as given in PMC4666614, “Identification of New Regions in HIV-1 gp120 Variable 2 and 3 Loops that Bind to α4β7 Integrin Receptor” (PLoS ONE, 2015).
“And” between values parts separate entries of the source, which are not always exact repeats. Equal entries are not always repeated. Bridge positions count the residues as written; N and C are the ends. Ends that are not written are not given here.

How the values were obtained:
[1] = system: α4β7 integrin binding to MAdCAM-1; assay: Competitive inhibition of binding of α4β7 on RPMI8866 cells to MAdCAM-1 by peptides, viruses, IMCs and controls; format: cell-based, human; conditions: for % Inhibition ± SD of α4β7 integrin binding to MAdCAM-1: average of 3–7 experiments in triplicate; for Inhibition of α4β7 integrin binding to MAdCAM-1 by peptide (competition): peptide 10 μg/ml, cells pre-incubated 45 min 37°C, 2–4 experiments in triplicate
Procedure: 96-well plates were coated with MAdCAM-1 as described above. RPMI8866 cells (2 X 10^6/ ml) were incubated with cyclic V2 or V3 MN, TH023, or acute subtype C (C-6980v0c22) peptides or with scrambled flanking region (SFL) or the mid region (SMR) TH023 V2 or with a completely scrambled (SCR) TH023 peptide (10 μg/ml) for 45 minutes at 37°C before being added in triplicate to the MAdCAM-1 coated plates for 1 hour at 37°C. In concurrent experiments, RMI8866 cells were incubated with purified primary HIV-1 (0.75 ng to 6 ng/well p24) subtype B (SF162, US-1, JRFL), subtype CRF01_AE viruses (92TH023), IMCs (0.75 ng to 1000 ng/well p24 in each case) containing acute or chronic envelopes (Acute CRF01_AE (703357) [GenBank:JN944658], C (C-6980v0c22) [GenBank:HM215344], A(851891); Chronic CRF01_AE (CM235.2) [AF259954.1], C (ET02220LucR) [U46016]) or with pSG3Δenv. pSG3Δenv contained a four-nucleotide insertion mutation (CTAG) in Env, leading to a translation stop codon after amino acid residue 142. The pSG3Δenv clone is routinely used for generating Env pseudotyped infectious virions.
Viruses were tested in triplicate in two independent experiments. In additional experiments, mannose, HIV-1 p24, and ovalbumin (0.2–10 μg/ml) were used in the competition assay as nonspecific protein controls (data in Table 2; 3–7 experiments performed in triplicate), whereas, an anti-RSV mAb, Synagis® was used as a nonspecific antibody control. Synagis® was incubated for 45 minutes with either MAdCAM-1 or with RPMI8866 cells and then placed in the assay system. The remainder of the assay was similar to that described above. Significance was determined by paired Student’s t test.

[2] = system: α4β7 on RPMI8866 cells; assay: Binding of α4β7 on RPMI8866 cells to plate-bound biotinylated V2/V3 peptides and its inhibition by ACT-1 (AlamarBlue); format: cell-based, human; conditions: streptavidin plate, biotinylated peptide 5 μg/ml; cells pre-incubated with ACT-1 0.5 μg/ml 45 min 37°C; 8 hour time point; average of 3 to 12 experiments in duplicate or triplicate
Procedure: Triplicate wells of a 96-well U-bottom polystyrene plate (Immunlon) were coated overnight at 4°C with 100 μl of 2 μg/ml of MAdCAM-1 or Streptavidin diluted in 0.05 M bicarbonate buffer, pH 9.6. The streptavidin-coated plates were then incubated with biotinylated cyclic or linear V2 peptides or cyclic V3 peptides (5 μg/ml in bicarbonate buffer, See Table 1 for sequence data) for 1 hour at 37°C. The solution from the plates was discarded and the plates were then blocked with blocking buffer (25 mM TRIS, 2.7 mM potassium chloride, 150 mM sodium chloride, 0.5% casein, 4 mM manganese chloride, pH 7.2) for 1 hour at 37°C. The solution was discarded and the plates were incubated with sample buffer (25 mM TRIS, 2.7 mM potassium chloride, 150 mM sodium chloride, 4 mM manganese chloride, pH 7.2 containing 1% fetal bovine sera) for 45 minutes at 37°C. Plates were manually washed 4 times with blocking buffer followed by the addition of 2 x 10^5 RPMI8866 cells/well that had been pre-incubated for 45 minutes at 37°C with sample buffer, with sample buffer containing 0.5 μg/ml of mAb ACT-1 or as a control, normal mouse serum (1:100). Plates were then incubated at 37°C (5% CO2) for 1 hour, washed 5 times with wash buffer followed by the addition of 100 μl of RPMI-1640 containing 1% FBS, pen/strep/glutamine. The adhered cells were detected by the addition of 10 μl of AlamarBlue® dye. Plates were incubated at 37°C (5% CO2) for 8 hours. Fluorescence was measured at 2 hour intervals using a M2 plate reader. For each condition, a minimum of 2 to 12 independent experiments run in duplicate or triplicate was performed. The optimum amount of coating proteins/peptides and the amount of ACT-1 required to inhibit α4β7 on RPMI8866 cells was determined in separate experiments (data not shown).

[3] = system: α4β7 on RPMI8866 cells; assay: Flow cytometry binding of ACT-1, gp120 and cyclic V2 peptides to RPMI8866 cells; design: species or system human; conditions: gp120 2.5 μg (anti-gp145 + anti-mouse Texas Red); biotinylated peptides 1 μg and 5 μg (neutrAvidin-PE); 30 min on ice; n = 2
Procedure: RPMI8866 cells (0.5 x10^6) were incubated for 30 minutes on ice with 10% normal goat sera in PBS to block the Fc receptors. Cells were suspended in cold FACS buffer (PBS-containing 0.5% BSA) and incubated at room temperature for 30 minutes with the mAb ACT-1 conjugated to APC (1 μg). Cells were washed twice with cold FACS buffer, fixed with 2% formaldehyde in PBS, and analyzed on a LSRII flow cytometer. The data was analyzed using FlowJo8.8.6 software (TreeStar Inc.).
RPMI8866 cells (1 x10^6) were suspended in cold FACS buffer (PBS-containing 0.5% BSA) and incubated at room temperature for 30 minutes with LIVE ⁄ DEAD® Fixable Dead Cell Stain (Life Technologies) as per the manufacturer’s instruction. Cells were washed twice with cold FACS buffer before being incubated with 10% goat sera in PBS for 30 minutes on ice. All subsequent incubations were carried out for 30 minutes on ice. CHO- expressed HIV-1IIIB rgp120 (2.5 μg) and biotinylated cyclic V2-TH023 peptide (1 μg and 5 μg) were incubated with RPMI8866 cells. […] Cells were washed twice with cold FACS buffer, fixed with 2% formaldehyde in PBS, and analyzed on a LSRII flow cytometer. The data was analyzed using FlowJo8.8.6 software (TreeStar Inc.).

Row | Molecule | Percent inhibition by ACT-1 of binding of α4β7 on RPMI8866 cells to the plate-bound peptide [2] [%] | Inhibition of α4β7 integrin binding to MAdCAM-1 by peptide (competition) [1] | also measured
1 | OC[C@H]1OC(O)[C@@H](O)[C@@H](O)[C@@H]1O (stereo partly drawn) [Mannose, mannose, reference compound] | – | – | % Inhibition ± SD of α4β7 integrin binding to MAdCAM-1 ([1]; 0.2 μg/ml): 6.7 ± 7.6%; % Inhibition ± SD of α4β7 integrin binding to MAdCAM-1 ([1]; 1.0 μg/ml): 7.6 ± 8.8%; % Inhibition ± SD of α4β7 integrin binding to MAdCAM-1 ([1]; 5 μg/ml): 16.3 ± 14.9%; % Inhibition of α4β7 integrin binding to MAdCAM-1 ([1]; 10 μg/ml, average of triplicate determinations from a single experiment): 0%; Inhibition of α4β7 integrin binding to MAdCAM-1 by nonspecific controls (in words) ([1]; 0.2–10 μg/ml): no significant inhibition
2 | CSFNITTELRDKRKKEHALFNNLDIVQLDGNSSLYRLINC (disulfide 1-40 (inferred)) [Cyclic V2 Acute C, cyclic V2 loop peptide based on acute C strain C06980v0c22] | 72.3 | – | –
3 | CSFNITTSIGDKMQKEYALLYKLDIEPIDNDSTSYRLISC (disulfide 1-40 (inferred)) [Cyclic V2 MN, cyclic V2 loop peptide based on MN strain (subtype B)] | 66.3 | – | –
4 | CSFNMTTELRDKKQKVHALFYKLDIVPIEDNTSSSEYRLINC (disulfide 1-42 (inferred)) [Cyclic V2 TH023, biotinylated cyclic V2 loop peptide of gp120, strain 92TH023 (CRF01_AE), HXB2 157–196] | 62.9 | 80–90% | Binding to α4β7 on RPMI8866 cells (flow cytometry) [3]: bound to α4β7
5 | CTRPNNNTRKSIRIGPGQTFYATGDIIGDIRQAYC (disulfide 1-35 (inferred)) [Cyclic V3 Acute C, cyclic V3 loop peptide based on acute C strain C06980v0c22] | 70.0 | – | –
6 | CTRPNYNKRKRIHIGPGRAFYTTKNIKGTIRQAHC (disulfide 1-35 (inferred)) [Cyclic V3 MN, cyclic V3 loop peptide based on MN strain (subtype B)] | 75.5 | 80% | –
7 | CTRPSNNTRTSINIGPGQVFYRTGDIIGDIRKAYC (disulfide 1-35 (inferred)) [Cyclic V3 TH023, cyclic V3 loop peptide, strain 92TH023, HXB2 295–331] | 67.6 | 80–90% and 80% | –
8 | Synagis: anti-RSV mAb used as a nonspecific antibody control [reference compound] | – | – | Inhibition of α4β7 binding to MAdCAM-1 by nonspecific antibody control ([1]; mAb incubated 45 min either with MAdCAM-1-coated plate or with RPMI8866 cells, 3 experiments): did not inhibit the α4β7 binding
9 | XSFNMTTELRDKKQKVHALFYKLDIVPIEDNTSSSEYRLINX [Linear V2 TH023, linear V2 92TH023 peptide with S-methyl Cysteine at both ends] | 65.5 | – | –
10 | gp120: HIV-1IIIB rgp120 (CHO expressed) [reference compound] | – | – | Binding to α4β7 on RPMI8866 cells (flow cytometry) [3]: bound to α4β7
